One series has as its system wheat. Description: Pre-emergence method, damage to crop plants. In kind it is in vivo. The text has this: Seeds of monocotyledonous and dicotyledonous weed plants and crop plants are laid out in wood-fiber pots in sandy loam and covered with soil. The compounds of the invention, formulated in the form of wettable powders (WP) or as emulsion concentrates (EC), are then applied to the surface of the covering soil in the form of an aqueous suspension or emulsion at a water application rate equating to 600 to 800 I/ha, with addition of 0.2% wetting agent. After the treatment, the pots are placed in a greenhouse and kept under good growth conditions for the trial plants. The damage to the test plants is scored visually after a test period of 3 weeks by comparison with untreated controls (herbicidal activity in percent (%): 100% activity=the plants have died, 0% activity=like control plants).

The subject of series [1] is Triticum aestivum (wheat). Description: Post-emergence method, damage to crop plants (also comparative experiments, TRZAS). Format: in vivo. How it is done: Seeds of monocotyledonous and dicotyledonous weed and crop plants are laid out in sandy loam in wood-fiber pots, covered with soil and cultivated in a greenhouse under good growth conditions. 2 to 3 weeks after sowing, the test plants are treated at the one-leaf stage. The compounds of the invention, formulated in the form of wettable powders (WP) or as emulsion concentrates (EC), are then sprayed onto the green parts of the plants in the form of an aqueous suspension or emulsion at a water application rate equating to 600 to 800 I/ha, with addition of 0.2% wetting agent. After the test plants have been left to stand in the greenhouse under optimal growth conditions for about 3 weeks, the action of the preparations is assessed visually in comparison to untreated controls (herbicidal action in percent (%): 100% activity=the plants have died, 0% activity=like control plants).

Where [2] appears, read: pre-emergence, 320 g per hectare, 3 weeks.
Where [3] appears, read: post-emergence, 20 g per hectare, about 3 weeks.

Turning to `COCC[S+]([O-])c1c(C(F)(F)F)ccc(-c2cnn(C)c(=O)c2O)c1C` (centres unmarked) [1-1070], the damage in wheat entry (in the series on wheat (setting [2]); in series [1] (setting [3])) was “no damage” in each case.

As to `Cc1c(-c2cnn(C)c(=O)c2O)ccc(C(F)(F)F)c1S(=O)(=O)CC1CC1` [1-555, 5-{3-[(cyclopropylmethyl)sulfonyl]-2-methyl-4-(trifluoromethyl)phenyl}-4-hydroxy-2-methylpyridazin-3(2H)-one], the damage in wheat entry (in the series with wheat (in vivo); in series [1] (in vivo)) was “no damage” in each case. As for `COCCSc1c(C(F)(F)F)ccc(-c2cnn(C)c(=O)c2O)c1C` [1-1069], the damage in wheat entry (with wheat (setting [2]); in series [1] (setting [3])) was “no damage” in each case. Regarding `Cc1c(-c2cnn(C)c(=O)c2O)ccc(C(F)(F)F)c1SCC1CC1` [1-553], the damage in wheat result (with wheat (setting [2]); in series [1] (setting [3])) was “no damage” in each case. On to `Cc1c(-c2cnn(C)c(=O)c2O)ccc(C(F)(F)F)c1[S+]([O-])CC1CC1` (centres unmarked) [1-554], for which the damage in wheat result in series [1] (setting [3]) is reported as “no damage”. As for `COCCS(=O)(=O)c1c(C(F)(F)F)ccc(-c2cnn(C)c(=O)c2O)c1C` [1-1071], the damage in wheat result (in the series with wheat (setting [2]); in series [1] (setting [3])) was “no damage” each time.

The record behind these values is patent US20170096402A1, “5-(HETERO)ARYLPYRIDAZINONES AND THEIR USE AS HERBICIDES” (BAYER CROPSCIENCE AKTIENGESELLSCHAFT, priority 2014, published 2017).
